The target in this assay is T1, human PAR-2 (hPAR-2) receptor (Homo sapiens, UniProt P55085).
T1 construct: expressed in HEK-293 cells in an endogenous manner; endogenous in cells; host or cells: HEK-293
T1 sequence (P55085 26-397): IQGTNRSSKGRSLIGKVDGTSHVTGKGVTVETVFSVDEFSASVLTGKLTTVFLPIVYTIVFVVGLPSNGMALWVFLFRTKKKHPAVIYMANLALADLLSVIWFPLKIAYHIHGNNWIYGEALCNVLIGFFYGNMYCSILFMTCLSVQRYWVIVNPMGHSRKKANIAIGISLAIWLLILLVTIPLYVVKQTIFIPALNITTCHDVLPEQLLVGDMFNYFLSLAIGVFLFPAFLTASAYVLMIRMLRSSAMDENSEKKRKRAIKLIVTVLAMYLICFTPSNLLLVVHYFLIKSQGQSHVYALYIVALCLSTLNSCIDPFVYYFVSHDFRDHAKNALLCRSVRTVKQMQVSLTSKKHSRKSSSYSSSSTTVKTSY
The experiment in a line: In vitro human PAR-2 functional antagonist activity using calcium assays. The format is cell-based. The note with it: hPAR-2 endogenously expressed in HEK-293 cells; stimulated by 2-Furoyl-LIGRLO-NH2 peptide; Fluo4AM intracellular calcium, FLIPR Tetra. The method, boiled down: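 HEK-293 cells with endogenous hPAR-2 were loaded with Fluo4AM and read for intracellular Ca2+ on FLIPR. After 10 min with compound alone, cells were stimulated with 2-Furoyl-LIGRLO-NH2 at the concentration giving 80% of maximal response. Inhibition was then recorded over 5 min relative to buffer and agonist-only signals.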

The results in this text go back to patent US20250320224A1 (DOMAIN THERAPEUTICS, priority 2022, published 2025).

Consider `Cc1cc(N2CCN(C(=O)c3cnc4c(n3)C(C)(C)CN4C3CCCC3)C(C)(C)C2)nc(C)c1C(=O)O` [Example 183, 6-(4-(5-cyclopentyl-7,7-dimethyl-6,7-dihydro-5H-pyrrolo[2,3-b]pyrazine-2-carbonyl)-3,3-dimethylpiperazin-1-yl)-2,4-dimethylnicotinic acid], for which the IC50 was over 10000 nM.

Take `Cc1cc(N2CCN(C(=O)c3ccc4c(n3)C(C)(C)CN4c3ccc(C(F)(F)F)c(F)c3)C(C)(C)C2)nc(C)c1C(=O)O` [Example 275, 6-(4-(1-(3-fluoro-4-(trifluoromethyl)phenyl)-3,3-dimethyl-2,3-dihydro-1H-pyrrolo[3,2-b]pyridine-5-carbonyl)-3,3-dimethylpiperazin-1-yl)-2,4-dimethylnicotinic acid]: the IC50 is under 500 nM. Turning to `CC1(C)C(=O)NCCN1C(=O)c1ccc2c(n1)C1(CC1)CN2c1ccc(Cl)c(F)c1` [Example 57, 4-(1′-(4-chloro-3-fluorophenyl)-1′,2′-dihydrospiro[cyclopropane-1,3′-pyrrolo[3,2-b]pyridine]-5′-carbonyl)-3,3-dimethylpiperazin-2-one], the IC50 is under 500 nM. For the compound `CC(C(=O)O)c1ccc(N2CCN(C(=O)c3ccc4c(n3)C(C)(C)CN4c3ccc(Cl)c(F)c3)C(C)(C)C2)nc1` (stereo not drawn) [Example 160, 2-(6-(4-(1-(4-chloro-3-fluorophenyl)-3,3-dimethyl-2,3-dihydro-1H-pyrrolo[3,2-b]pyridine-5-carbonyl)-3,3-dimethylpiperazin-1-yl)pyridin-3-yl)propanoic acid], the IC50 was under 500 nM. Take `CC1(C)CN(c2ccc(C(F)(F)F)c(Cl)c2)c2ncc(C(=O)N3CCN(c4ccc(CC(=O)O)cn4)CC3(C)C)nc21` [Example 219, 2-(6-(4-(5-(3-chloro-4-(trifluoromethyl)phenyl)-7,7-dimethyl-6,7-dihydro-5H-pyrrolo[2,3-b]pyrazine-2-carbonyl)-3,3-dimethylpiperazin-1-yl)pyridin-3-yl)acetic acid]: the IC50 is under 500 nM. In the case of `CC1(C)CN(c2ccc(Cl)c(F)c2)c2ccc(C(=O)N3CCN(c4cncc(C(=O)O)c4)CC3(C)C)nc21` [Example 151, 5-(4-(1-(4-chloro-3-fluorophenyl)-3,3-dimethyl-2,3-dihydro-1H-pyrrolo[3,2-b]pyridine-5-carbonyl)-3,3-dimethylpiperazin-1-yl)nicotinic acid], the IC50 was under 500 nM. As for `Cc1cc(N2CCN(C(=O)c3cnc4c(n3)C(C)(C)CN4c3ccc(Cl)c(F)c3)C(C)(C)C2)c(C(=O)O)c(C)n1` [Example 263, 4-(4-(5-(4-chloro-3-fluorophenyl)-7,7-dimethyl-6,7-dihydro-5H-pyrrolo[2,3-b]pyrazine-2-carbonyl)-3,3-dimethylpiperazin-1-yl)-2,6-dimethylnicotinic acid], the IC50 is over 10000 nM.

As to `Cc1cc(N2CCN(C(=O)c3cnc4c(n3)C(C)(C)CN4c3cc(F)c(F)c(F)c3)C(C)(C)C2)nc(C)c1C(=O)O` [Example 277, 6-(4-(7,7-dimethyl-5-(3,4,5-trifluorophenyl)-6,7-dihydro-5H-pyrrolo[2,3-b]pyrazine-2-carbonyl)-3,3-dimethylpiperazin-1-yl)-2,4-dimethylnicotinic acid], the IC50 is under 500 nM. Take `Cc1cc(N2CCN(C(=O)c3ccc4c(n3)C3(CCOCC3)CN4c3ccc(Cl)c(F)c3)C(C)(C)C2)nc(C)c1C(=O)O` [Example 56, 6-(4-(1′-(4-chloro-3-fluorophenyl)-1′,2,2′,3,5,6-hexahydrospiro[pyran-4,3′-pyrrolo[3,2-b]pyridine]-5′-carbonyl)-3,3-dimethylpiperazin-1-yl)-2,4-dimethylnicotinic acid]: the IC50 was under 500 nM. To `CC1(C)C(=O)NCCN1C(=O)c1ccc2c(n1)[C@]1(C)CCO[C@@H]1N2c1ccc(Cl)c(F)c1` (racemic) [Example 61, cis-4-(8-(4-chloro-3-fluorophenyl)-3a-methyl-3,3a,8,8a-tetrahydro-2H-furo[3′,2′:4,5]pyrrolo[3,2-b]pyridine-5-carbonyl)-3,3-dimethylpiperazin-2-one] belongs under 500 nM; to `COC1c2nc(C(=O)N3CCN(c4ccc(CC(=O)O)cn4)CC3(C)C)ccc2N(c2ccc(Cl)c(F)c2)CC1(C)C` (stereo not drawn) [Example 253, 2-(6-(4-(5-(4-chloro-3-fluorophenyl)-8-methoxy-7,7-dimethyl-5,6,7,8-tetrahydro-1,5-naphthyridine-2-carbonyl)-3,3-dimethylpiperazin-1-yl)pyridin-3-yl)acetic acid], 500 to 10000 nM; to `CN(C)C(=O)c1csc(N2CCN(C(=O)c3ccc4c(n3)C(C)(C)CN4c3ccc(Cl)c(F)c3)C(C)(C)C2)n1` [Example 80, 2-(4-(1-(4-chloro-3-fluorophenyl)-3,3-dimethyl-2,3-dihydro-1H-pyrrolo[3,2-b]pyridine-5-carbonyl)-3,3-dimethylpiperazin-1-yl)-N,N-dimethylthiazole-4-carboxamide], under 500 nM. `Cc1cc(C)nc(N2CCN(C(=O)c3ccc4c(n3)C(C)(C)CN4C3CCC(C#N)CC3)C(C)(C)C2)c1` (stereo not drawn) [Example 165, 4-(5-(4-(4,6-dimethylpyridin-2-yl)-2,2-dimethylpiperazine-1-carbonyl)-3,3-dimethyl-2,3-dihydro-1H-pyrrolo[3,2-b]pyridin-1-yl)cyclohexane-1-carbonitrile]: the concentration for half-maximal inhibition (IC50) is 500 to 10000 nM. `COc1cc2c(nc1C(=O)N1CCN(c3ccc(CC(=O)O)cn3)CC1(C)C)C(C)(C)CN2c1ccc(Cl)c(F)c1` [Example 255, 2-(6-(4-(1-(4-chloro-3-fluorophenyl)-6-methoxy-3,3-dimethyl-2,3-dihydro-1H-pyrrolo[3,2-b]pyridine-5-carbonyl)-3,3-dimethylpiperazin-1-yl)pyridin-3-yl)acetic acid]: the IC50 was over 10000 nM.

For `CO[C@H]1CN(C(=O)c2ccc3c(n2)C(C)(C)CN3c2ccc(Cl)c(F)c2)CC[C@H]1CC(=O)O` [Example 37, 2-((3R,4S)-1-(1-(4-chloro-3-fluorophenyl)-3,3-dimethyl-2,3-dihydro-1H-pyrrolo[3,2-b]pyridine-5-carbonyl)-3-methoxypiperidin-4-yl)acetic acid], the IC50 lay within 500 to 10000 nM.

For the compound `CC1(C)CN(c2ccc(Cl)c(F)c2)c2ccc(C(=O)N3CCC4(CC3)CNC(=O)C4)nc21` [Example 76, 8-(1-(4-chloro-3-fluorophenyl)-3,3-dimethyl-2,3-dihydro-1H-pyrrolo[3,2-b]pyridine-5-carbonyl)-2,8-diazaspiro[4.5]decan-3-one], the IC50 fell in the range of 500 to 10000 nM. For the compound `Cc1cc(N2CCN(C(=O)c3ccc4c(n3)C(C)(C)CN4c3ccc(Cl)cn3)C(C)(C)C2)nc(C)c1C(=O)O` [Example 134, 6-(4-(1-(5-chloropyridin-2-yl)-3,3-dimethyl-2,3-dihydro-1H-pyrrolo[3,2-b]pyridine-5-carbonyl)-3,3-dimethylpiperazin-1-yl)-2,4-dimethylnicotinic acid], the IC50 was under 500 nM. In the case of `COc1ncc(N2CCN(C(=O)c3ccc4c(n3)C(C)(C)CN4c3ccc(Cl)c(F)c3)C(C)(C)C2)cc1C(=O)O` [Example 142, 5-(4-(1-(4-chloro-3-fluorophenyl)-3,3-dimethyl-2,3-dihydro-1H-pyrrolo[3,2-b]pyridine-5-carbonyl)-3,3-dimethylpiperazin-1-yl)-2-methoxynicotinic acid], the 50% inhibitory concentration (IC50) was under 500 nM.
